Assay: pH of the stabilizer (additive) in water/ethanol mixture, measured by pH meter MM-60R (TOA DKK)
Settings: 5 mg/mL in water/EtOH=1:1 mixture
Procedure: The pH of the (B) component can be measured by preparing 50% (v/v) ethanol aqueous solution containing 5 mg/mL of the (B) component, and measuring pH using commercially available pH meter. For example, pH can be measured by using MM-60R (TOA DKK).

| Compound | pH of the additive used as stabilizer |
| --- | --- |
| O=C([O-])CC(O)(CC(=O)[O-])C(=O)O.[Na+].[Na+] [disodium hydrogen citrate] | 6.3 |
| O=C1O[C@H]([C@@H](O)CO)C([O-])=C1O.[Na+] [sodium ascorbate] | 8.4 |
